Measurements reported in BindingDB's records for patent US20240132480 (Cornell University, 2024).

Target: T1, Dihydrolipoyl dehydrogenase (Mycobacterium tuberculosis (strain ATCC 25618 / H37Rv), UniProt P9WHH9)
T1 sequence (P9WHH9 whole entry): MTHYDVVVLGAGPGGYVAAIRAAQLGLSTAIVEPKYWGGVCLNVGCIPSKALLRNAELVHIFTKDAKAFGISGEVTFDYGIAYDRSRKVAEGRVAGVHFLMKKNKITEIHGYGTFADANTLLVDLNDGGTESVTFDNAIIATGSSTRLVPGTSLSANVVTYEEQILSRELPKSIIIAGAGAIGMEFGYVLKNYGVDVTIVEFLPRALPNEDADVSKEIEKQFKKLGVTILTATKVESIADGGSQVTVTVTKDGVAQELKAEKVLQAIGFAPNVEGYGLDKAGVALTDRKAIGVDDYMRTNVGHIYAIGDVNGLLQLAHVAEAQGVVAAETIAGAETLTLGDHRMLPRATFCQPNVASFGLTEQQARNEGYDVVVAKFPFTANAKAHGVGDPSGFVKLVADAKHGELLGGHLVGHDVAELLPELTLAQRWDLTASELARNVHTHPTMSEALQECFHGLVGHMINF
Experiment: LPD Assay with 30 min preincubation

CC#CCNC(=O)CN(C)S(=O)(=O)c1cc(C)cc2cc(C#N)[nH]c12 [US20240132480, Example 210]
IC50: 38 nM
